Assay results taken from article PMC9611449, “Hydroxy-3-Phenylcoumarins as Multitarget Compounds for Skin Aging Diseases: Synthesis, Molecular Docking and Tyrosinase, Elastase, Collagenase and Hyaluronidase Inhibition, and Sun Protection Factor” (Molecules, 2022).
Values joined by “and” are separate entries in the source; they are usually repeats but may differ in a detail not shown here. Equal values may be shown once. “Also recorded” adds a separate entry of the source. Read-outs that look alike come from different tables or passages of the source.

Assays:
mushroom tyrosinase = experiment: Tyrosinase inhibition assay (L-DOPA substrate); type: biochemical; conditions: for Enzyme inhibition Tyrosinase: 50 μM; for IC50: mean ± SD of three independent experiments
Description: (§1) Since the compounds were dissolved in DMSO, in the assays carried out without compounds, DMSO was added to the reaction mixture as blank control. […] Data from activity experiments were recorded using an Ultrospec 2100 spectrophotometer (Biochrom Ltd., Cambridge, UK).
The inhibition of tyrosinase was monitored by using DOPA as substrate. The reaction solution contained phosphate buffer (25 mM, pH 6.8) and mushroom tyrosinase (100 U/mL), with or without test samples.

[1] = biological target: porcine pancreatic elastase (Sus scrofa, UniProt P00772); experiment: Elastase inhibition assay (SANA substrate); type: biochemical; conditions: for Enzyme inhibition Elastase / inhibition at 50 µM: 50 μM; for IC50: mean ± SD of three independent experiments; for inhibition at 50 µM: read-out: Enzyme inhibition Elastase
Description: as §1
The inhibition of elastase was determined by measuring the production of p-nitroaniline during the reaction of the enzyme with the N-succ-(Ala)3-nitroanilide (SANA) substrate. The assay was carried out in Tris-HCl buffer (0.1 M, pH 8.0) containing porcine pancreatic elastase (3.3 µg/mL). The reaction mixture was incubated in the presence or in the absence of the test compounds for 20 minutes and, once the substrate (1.6 mM) was added, the enzyme activity was monitored at 410 nm.

[2] = system: Collagenase from Clostridium histolyticum; experiment: Collagenase inhibition assay (FALGPA substrate); type: biochemical; conditions: for Enzyme inhibition Collagenase: 100 μM; for IC50: mean ± SD of three independent experiments
Description: as §1, with “Results from all the inhibition tests described below were reported as a percentage of the blank control. Since” for “Since”
Collagenase from Clostridium histolyticum (1 U/mL) was prepared in 0.05 M Tricine buffer (pH 7.5), with 0.4 M NaCl and 0.01 M CaCl2, and incubated with different concentrations of test samples for 15 minutes. After adding the N-(3-[2-Furyl]-acryloyl)-Leu-Gly-Pro-Ala (FALGPA) substrate, prepared in the same buffer solution reaching a final concentration of 0.8 mM, the absorbance was registered at 340 nm. Epigallocatechin gallate was used as a positive control.

[3] = In vitro determination of the sun protection factor (UV absorbance, Mansur equation); type: physicochemical; conditions: compounds 0.1 mg/mL, absorbance 290–320 nm
Description: The sun protection factor of coumarins’ derivatives was measured by the UV absorbance method, as previously reported. The absorbances of the compounds (0.1 mg/mL) were registered in the range of 290–320 nm, with 5 nm increments, and three measurements were performed at each point. The SPF was determined by using the Mansur Equation [23]: SPF=CF × Σ290320 × EE(λ) × I(λ) × Abs(λ) where CF = correction factor (10); EE (λ) = erythemogenic effect of radiation with wavelength λ; I(λ) = solar intensity spectrum; Abs(λ) = spectrophotometric absorbance values at wavelength λ. The values of EE (λ) × I(λ) are constant as determined by Sayre et al. (Table 5).

[4] = system: Human skin keratinocyte cell line (HaCaT); experiment: HaCaT cell viability (MTT assay); type: cell-based; conditions: 10–200 μM, 24 h
Description: Human skin keratinocyte cell line (HaCaT; CLS–Cell Lines Service, Eppelheim, Germany) was cultured in Dulbecco’s Modified Eagle’s Medium (DMEM) with 10% fetal bovine serum (FBS; Gibco, NY, USA) and 1% penicillin/streptomycin at 37 °C in a humidified atmosphere with 5% CO2. Cell viability was determined by the MTT (3-(4,5-dimethylthiazol-2-yl)-2,5-diphenyltetrazolium bromide) colorimetric assay, as previously reported. Briefly, HaCaT cells were seeded in 96-well plates and incubated with compounds at different concentrations (0–200 µM). After 24 h, cells were labelled with MTT solution for 3 h at 37 °C. DMSO was added to the formed violet formazan precipitates and the absorbance of each well was measured at 560 nm.

tyrosinase = conditions: cited from earlier work
hyaluronidase = biological target: T1, hyaluronidase (Bos taurus, UniProt Q2YDK3); experiment: Hyaluronidase inhibition assay; type: biochemical; conditions: ratio of IC50 values
T1 sequence (Q2YDK3 36-553): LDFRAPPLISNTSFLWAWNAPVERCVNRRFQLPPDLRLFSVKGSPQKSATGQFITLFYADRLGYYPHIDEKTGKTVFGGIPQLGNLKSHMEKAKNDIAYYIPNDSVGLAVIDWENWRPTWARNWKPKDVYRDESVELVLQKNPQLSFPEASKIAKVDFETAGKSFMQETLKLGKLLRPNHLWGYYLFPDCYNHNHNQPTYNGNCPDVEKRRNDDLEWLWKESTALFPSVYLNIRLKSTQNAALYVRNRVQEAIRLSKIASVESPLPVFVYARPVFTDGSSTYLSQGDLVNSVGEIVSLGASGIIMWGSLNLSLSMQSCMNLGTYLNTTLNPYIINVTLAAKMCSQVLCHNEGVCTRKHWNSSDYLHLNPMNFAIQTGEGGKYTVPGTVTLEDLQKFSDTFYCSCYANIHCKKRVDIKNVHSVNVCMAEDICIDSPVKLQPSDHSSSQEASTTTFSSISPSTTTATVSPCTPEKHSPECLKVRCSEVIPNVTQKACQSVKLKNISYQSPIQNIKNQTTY
Description: as §1
Inhibition of hyaluronidase was determined following the method reported by Chompoo and co-authors. A 5 μL test sample was incubated with 100 μL of enzyme solution (1.5 U) containing 20 mM sodium phosphate buffer (pH 7.0) with 77 mM NaCl and bovine serum albumin (BSA) 0.01%. […] After 10 minutes at room temperature, the absorbance was monitored at 600 nm.

[5] = already described by our research group

Sequence of porcine pancreatic elastase (P00772 27-266): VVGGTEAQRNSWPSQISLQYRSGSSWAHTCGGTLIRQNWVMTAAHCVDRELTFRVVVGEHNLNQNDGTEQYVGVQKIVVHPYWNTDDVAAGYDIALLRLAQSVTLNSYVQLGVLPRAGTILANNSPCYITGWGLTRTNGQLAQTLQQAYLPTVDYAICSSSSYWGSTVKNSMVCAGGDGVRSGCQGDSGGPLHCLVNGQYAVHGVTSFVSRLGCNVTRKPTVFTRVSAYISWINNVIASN

Row | SMILES | Enzyme inhibition Tyrosinase (mushroom tyrosinase) | IC50 (mushroom tyrosinase) | Enzyme inhibition Elastase [1] | IC50 [1] | Enzyme inhibition Collagenase [2] | IC50 [2] | SPF [3] | inhibition at 50 µM [1] | times more active than the reference compound epigallocatechin gallate (collagenase) ([2]; ratio of IC50 values) | times more active than the standard inhibitor kojic acid (tyrosinase) (mushroom tyrosinase; ratio of IC50 values) | Cytotoxicity on HaCaT cell viability [4] | IC50 (tyrosinase; [5]) | IC50 (tyrosinase) | times more active than the reference compound oleanolic acid (hyaluronidase) (hyaluronidase)
1 | O=c1oc2c(O)c(O)ccc2cc1-c1ccccc1Br [Compound 9, 3-(2′-Bromophenyl)-7,8-dihydroxycoumarin] | 15.7% | > 50 µM | N.I | > 50 µM | 14.7% | > 150 µM | 4.27 ± 0.91 |  |  |  |  |  |  | 
2 | O=c1oc2ccc3ccccc3c2cc1-c1ccc(O)cc1 [Compound 13, 3-(4′-Hydroxyphenyl)benzo[f]coumarin] | 23.2% | > 50 µM |  | > 50 µM | 51.5% | 96.8 ± 5.9 µM | 6.40 ± 1.53 | 20.7% | 1.25 times |  |  |  |  | 
3 | O=c1oc2cc(O)c(O)cc2cc1-c1ccccc1O [Compound 12, 6,7-Dihydroxy-3-(2′-hydroxyphenyl)coumarin] | 22.7% | > 50 µM |  | > 50 µM | 39.3% | 134 ± 6.6 µM | 5.64 and 5.64 ± 1.43 | 24.5% |  |  |  |  |  | 
4 | O=c1oc2cc(O)c(O)cc2cc1-c1ccccc1Br [Compound 6, 3-(2′-Bromophenyl)-6,7-dihydroxycoumarin] | 25.8% | > 50 µM |  | > 50 µM | 38.1% | 140 ± 8 µM | 8.08 and 8.08 ± 0.01 | 23.8% |  |  |  |  |  | 
5 | O=c1oc2c(O)c(O)ccc2cc1-c1ccc(Br)cc1 [Compound 7, 3-(4′-Bromophenyl)-7,8-dihydroxycoumarin] | 9.6% | > 50 µM |  | > 50 µM | N.I. | > 150 µM | 5.88 ± 1.35 | 15.6% |  |  |  |  |  | 
6 | O=c1oc2ccc3ccccc3c2cc1-c1cc(O)cc(O)c1 [Compound 17, 3-(3′,5′-Dihydroxyphenyl)benzo[f]coumarin] | 10.0% | > 50 µM |  | > 50 µM | 15.6% | > 150 µM | 4.34 ± 0.66 | 22.4% |  |  |  |  |  | 
7 | O=c1oc2cc(O)cc(O)c2cc1-c1ccccc1Br [Compound 3, 3-(2′-Bromophenyl)-5,7-dihydroxycoumarin] | 29.3% | > 50 µM | N.I | > 50 µM | 37.1% | 125 ± 10.2 µM | 5.89 ± 0.21 |  |  |  |  |  |  | 
8 | O=c1oc2cc(O)cc(O)c2cc1-c1cccc(Br)c1 [Compound 2, 3-(3′-Bromophenyl)-5,7-dihydroxycoumarin] | 79.2% | 7.03 µM and 7 µM |  | > 50 µM | 44.3% | 110 ± 2.8 µM | 4.52 ± 0.22 | 20.3% |  | 2.6 times | non-cytotoxic; also recorded: no toxicity |  |  | 
9 | O=c1oc2ccc3ccccc3c2cc1-c1ccc(O)c(O)c1 [Compound 16, 3-(3′,4′-Dihydroxyphenyl)benzo[f]coumarin] | N.I | > 50 µM |  | > 50 µM | 7.9% | > 150 µM | 5.09 ± 1.35 | 22.8% |  |  |  |  |  | 
10 | O=c1ccc2cc(O)c(O)cc2o1 [Esculetin] |  |  |  |  |  |  |  |  |  |  |  | 43 µM |  | 
11 | O=c1oc2cc(O)ccc2cc1-c1cccc(Br)c1 [Compound 10, 3-(3′-Bromophenyl)-7-hydroxycoumarin] | 56.9% | 42 ± 1.1 µM |  | > 50 µM | 13.2% | > 150 µM | 6.70 ± 1.30 | 38.9% |  |  |  |  |  | 
12 | O=C(O[C@@H]1Cc2c(O)cc(O)cc2O[C@@H]1c1cc(O)c(O)c(O)c1)c1cc(O)c(O)c(O)c1 [Epigallocatechin gallate, reference compound] |  |  |  |  |  | 121 ± 6.2 µM |  |  |  |  |  |  |  | 
13 | O=c1oc2c(O)c(O)ccc2cc1-c1cccc(Br)c1 [Compound 8, 3-(3′-Bromophenyl)-7,8-dihydroxycoumarin] | 33.6% | > 50 µM |  | > 50 µM | 39.9% | 122 ± 4.8 µM | 6.94 ± 2.57 | 2.2% |  |  |  |  |  | 
14 | O=c1oc2ccc3ccccc3c2cc1-c1ccccc1O [Compound 15, 3-(2′-Hydroxyphenyl)benzo[f]coumarin] | N.I | > 50 µM | N.I | > 50 µM | N.I. | > 150 µM | 6.89 ± 3.28 |  |  |  |  |  |  | 
15 | O=c1oc2c(O)cc(O)cc2cc1-c1cc(O)c(O)c(O)c1 [6,8-Dihydroxy-3-(3',4',5'-trihydroxyphenyl)coumarin] |  |  |  |  |  |  |  |  |  |  |  | 270 µM |  | 
16 | O=c1oc2cc(O)c(O)cc2cc1-c1cccc(O)c1 [Compound 11, 6,7-Dihydroxy-3-(3′-hydroxyphenyl)coumarin] | 8.6% | > 50 µM |  | > 50 µM | 35.7% | 143 ± 7.1 µM | 5.44 and 5.44 ± 0.64 | 29.6% |  |  |  |  |  | 
17 | Nc1cc2ccc(O)cc2oc1=O [3-Amino-7-hydroxycoumarin] |  |  |  |  |  |  |  |  |  |  |  |  | 50 µM | 
18 | O=c1oc2cc(O)c(O)cc2cc1-c1ccc(Br)cc1 [Compound 4, 3-(4′-Bromophenyl)-6,7-dihydroxycoumarin] | 58.3% | 39.9 ± 0.7 µM |  | > 50 µM | N.I. | > 150 µM |  | 30.5% |  |  |  |  |  | 1.9 times
19 | O=c1oc2ccc3ccccc3c2cc1-c1cccc(O)c1 [Compound 14, 3-(3′-Hydroxyphenyl)benzo[f]coumarin] | 22.3% | > 50 µM |  | > 50 µM | 21.2% | > 150 µM | 5.08 ± 0.46 | 35.3% |  |  |  |  |  | 
20 | O=c1oc2cc(O)c(O)cc2cc1-c1cccc(Br)c1 [Compound 5, 3-(3′-Bromophenyl)-6,7-dihydroxycoumarin] | 80.3% | 8.25 µM and 8.3 µM |  | 37.4 µM | 18.2% | > 150 µM |  | 68.4% |  |  |  |  |  | 
21 | O=c1oc2c(O)cc(Br)cc2cc1-c1ccc(O)cc1 [6-Bromo-8-hydroxy-3-(4'-hydroxyphenyl)coumarin] |  |  |  |  |  |  |  |  |  |  |  | 215 µM |  | 
